Measured values from patent US10231456B2, “Methods and compositions for controlling weed infestation and improving grass quality” (BAYER CROPSCIENCE LP, priority 2012, dated 2019).

What was measured:
[1] = test system: dallisgrass; experiment: Post-emergence field plot test, % damage to natural dallisgrass infestation; assay type: in vivo, dallisgrass (Paspalum dilatatum); settings: with non-ionic surfactant, rates g/ha foram 28.78, TCM 15, halo 69.9; for Trial 1 (16 WAT) % damage: 16 weeks after treatment; for Trial 2 (42 DAA) % damage: 42 days after application; for Trial 3 (48 DAA) % damage: 48 days after application
Source text: Plots approximately 2-4.6 m^2 in size are contain a natural infestion of the weed dallisgrass. Using a CO2 propelled backpack sprayer, thiencarbazone-methyl (TCM), foramsulfuron (foram), and halosulfuron-methyl (halo) are applied on their own and in a combination, by post-emergence method, to the dallisgrass, at the application rates specified. The application rates for each compound and combination are equivalent to each other. All treatments included a non-ionic surfactant. After 42 days, 48 days, and 16 weeks after treatment, the degree of damage to the plants is rated in % damage in comparison to the development of the untreated control.
(§1) The FIGURES denote: • 0%=no effect (like untreated control) • 100%=total destruction.

[2] = test system: Tall Fescue; experiment: Glasshouse post-emergence test, % damage to Tall Fescue; assay type: in vivo, tall fescue (Schedonorus phoenix/Festuca arundinacea); settings: NIS 0.25 % V/V
Source text: Glasshouse plots approximately 1.1 m^2 in size are planted with the weed Tall Fescue. Using a 1 nozzle motorized track sprayer, thiencarbazone-methyl (BYH18636), foramsulfuron (Revolver●), and halosulfuron-methyl (Sedgehammer●) are applied on their own and in combination with each other (a combination of thiencarbazone-methyl, foramsulfuron, and halosulfuron-methyl is SP 102000025052), by post-emergence method, to the weed Tall Fescue, at the application rates specified. The application rates for each compound and combination are equivalent to each other.
After 14 and 27 days after treatment, the degree of damage to the plants is rated in % damage in comparison to the development of the untreated control.
as §1

[3] = higher rates: TCM 22.2, foram 44.37, halo 69 G A/HA (blend 135.6 G A/HA, 3.2 OZ/A)
[4] = lower rates: TCM 14.58, foram 29.12, halo 45.3 G A/HA (blend 89 G A/HA, 2.1 OZ/A)

Row | Structure (SMILES) | Trial 1 (16 WAT) % damage [1] | Trial 2 (42 DAA) % damage [1] | Trial 3 (48 DAA) % damage [1] | 0 DAA % damage [2, 3] | 0 DAA % damage [2, 4] | 14 DAA % damage [2, 3] | 14 DAA % damage [2, 4] | 27 DAA % damage [2, 3] | 27 DAA % damage [2, 4]
1 | COC(=O)c1c(Cl)nn(C)c1S(=O)(=O)NC(=O)Nc1nc(OC)cc(OC)n1 [halosulfuron-methyl] | 0% | 0% | −9% | – | – | – | – | – | –
2 | COc1cc(OC)nc(NC(=O)NS(=O)(=O)c2cc(NC=O)ccc2C(=O)N(C)C)n1 [foramsulfuron] | 31.5% | 76.7% | 35% | – | – | – | – | – | –
3 | COC(=O)c1csc(C)c1S(=O)(=O)NC(=O)n1nc(OC)n(C)c1=O [thiencarbazone-methyl] | 85.25% | 65% | 51% | 0% | 0% | 42.5% | 26.3% | 75% | 52.5%
